According to patent publication US20160022757A1, “THERAPEUTIC METHODS FOR TREATING SOLID TUMORS AND RELATED DIAGNOSTIC METHODS” (ICAHN SCHOOL OF MEDICINE AT MOUNT SINAI, priority 2013, published 2016):
Entries after “also recorded” stand apart in the source; their conditions may differ.

Assays:
[1] = test system: PI3K and TORC1 activity (p-4EBP); test: Western blot analysis of PI3K pathway activity in hindguts after compound treatment; assay type: in vivo, Drosophila; conditions: four-hit hindguts; for p-4EBP levels: seven days
Text: Western Blot Analysis: Primary antibodies used were rabbit anti-Drosophila phospho-AKT (S505) (1:1000, Cell Signaling), rabbit anti-pan-AKT (1:1000, Cell Signaling), rabbit anti-phospho-4EBP (T37/46) (1:1000, Cell Signaling), rabbit anti-human phospho-AKT (Ser473) (1:1000, Cell Signaling), mouse anti-α-actin (1:1000, Cell Signaling) and mouse anti-Syntaxin (1:1000, DSHB). HRP-conjugated anti-mouse and anti-rabbit antibodies were used as secondary antibodies (1:5000, Cell Signaling). For signal detection, Immobilon Chemiluminescent HRP Substrate (Millipore) was used.
(§1) Compound Feeding: Compound treated food was made by diluting compound stocks (made in 100% DMSO) in semi-defined Drosophila medium to achieve a final concentration of 0.5% DMSO (empirically determined as the non-toxic DMSO dose in semi-defined Drosophila medium). Adult flies were kept on compound treated medium in standard Drosophila vials for 7 days (30 flies/vial, 1 ml food/vial) and provided with fresh compound food every other day.
Western Blot Analysis: Tissue lysates for western analysis were made by grinding 10-20 hindguts in lysis buffer (50 mM Tris-HCl, 150 mM NaCl, 1 mM EDTA, 1% NP-40) supplemented with protease and phosphatase inhibitor cocktails (Sigma). Lysates were boiled for 10 minutes in SDS Sample buffer and reducing agent, resolved on SDS-Page and transferred using standard protocols. Cell lysates are prepared similarly. Protein concentrations were determined using BioRad Protein Assay Dye Reagent following manufacturer's instructions.

[2] = test system: ras^G12V p53^RNAi pten^RNAi apc^RNAi animals (adult hindgut); test: Dissemination (distant migration) after compound feeding, four-hit model; assay type: in vivo, Drosophila; conditions: for dissemination in combination with bortezomib: fed together with low non-toxic bortezomib (1 μM); for distant migration (dissemination into the abdominal cavity): four-hit model ras^G12V p53^RNAi pten^RNAi apc^RNAi, compounds fed for one week, single agent
Description: (§2) Targeted expression in the adult hindgut: Multigenic combinations were targeted to the adult hindgut using the hindgut specific gal4 line byn-gal4 (V. Hartenstein) and tub-gal80^ts (Bloomington). Crosses were kept at 16° C. to keep the transgenes silent during development and adult females were transferred to 29° C. to induce transgene expression. In addition, GFP and Dcr2 (Dicer 2) were co-expressed to mark the hindgut cells and to facilitate RNAi-mediated knock-down, respectively.
as §1
Compound Feeding: Compounds used in this study were (stock concentrations and sources in parentheses) AZD6244 (200 mM, Selleck Chemicals), SL327 (200 mM, Tocris), GW5074 (100 mM, Tocris), Sorafenib (200 mM, LC Labs), LY294002 (200 mM, LC Labs), Rapamycin (200 mM, LC Labs), BEZ235 (20 mM, LC Labs), Dasatinib (200 mM, LC Labs), SP600125 (200 mM, LC Labs), Bortezomib (200 mM, LC Labs), Cisplatin (200 mM, Sigma), LBH589 (200 mM, LC Labs), Wortmannin (200 mM, LC Labs), PI-103-HCl (100 mM, Tocris), Everolimus (100 mM, LC Labs) and Enzastaurin (50 mM, LC Labs).
Imaging and Scoring: Fluorescence images were taken using a Leica TCS SPE confocal microscope and processed using the Leica LAS-AF software. Scoring and imaging of SA-β-gal staining was performed using an Olympus BX41 microscope and a Nikon DS-Ri1 camera. Distant migration was imaged and scored using a Leica MZ16F dissecting scope with a GFP filter under 10× magnification.
Statistical Analysis: Statistical significance for the distant migration assay was calculated using Fisher's exact test as this test allows the analysis of contingency tables where sample sizes are relatively small. Use of a 4×2 contingency table allowed pairwise comparisons of the distant migration phenotype, which has four phenotypic categories, between different genotypes and/or treatment conditions. Each experiment was performed in duplicate (n=25-30 for each replicate) and multiple times. Error bars indicate standard error of the mean.
Given the low success rate of drug approvals for colorectal cancer (3) the study herein asked whether differences in genetic complexity influence a tumor model's response to drugs. Sixteen compounds that target key cancer relevant pathways and cellular processes were selected (FIG. 11); many of these compounds are currently in clinical trials including for colorectal cancer (25-27). Commencing the day of transgene induction, animals were fed compounds for one week and then scored for issemination into the abdominal cavity. Final compound concentrations in the media ranged from 1 μM-1 mM, corresponding to approximately 10-200 ng/day/animal based on adult feeding rates (FIG. 11).

DLD-1 cells = test: MTT viability assay, DLD-1 cells; assay type: cell-based, human; conditions: for viability after bortezomib pre-treatment alone: doses that sensitize to BEZ235
Description: (§3) Cell culture: Parental DLD-1 and HCT-116 cell lines (ATCC) and their PI3K wildtype derivatives (DLD-1 WT and HCT116 WT) (38) that were obtained from Dr. Bert Vogelstein's laboratory were maintained using DMEM with 10% FBS. All experiments were done under low serum (2.5% FBS) conditions (38). MTT assay: Cells were grown in sterile 25 cm^2 flasks to 80% confluency, trypsinized, resuspended in 100 mL DMEM with 2.5% FBS and seeded in 96-well plates in equal numbers. After 24 hours, cells were treated with compounds diluted in DMEM with 2.5% FBS as indicated for 1, 2 or 3 days. MTT assay was performed by replacing compound containing medium with fresh DMEM with 2.5% FBS and 10 mg/ml MTT reagent (Thiazoyl Blue tetrazolium Bromide, Fisher Scientific) in PBS at a ratio of 5:1 (120 μl/well; 96-well plates). Cells are incubated at 37° C. for 3 hours, then the medium is removed and cells are incubated in MTT solvent (4 mM HCl, 0.1% NP40 in isopropanol) on a shaker. The amount of MTT formazan in the resulting solution is spectrophotometrically measured at […] (and a reference filter of 620 nM). Adjusted absorbance value for each well is calculated using the following formula: (OD590SAMPLE-OD590BLANK)−(OD620SAMPLE-OD620BLANK). Each experiment is done in quadruple and relative viability is expressed as fold change in adjusted absorbance compared to untreated and DMSO treated controls in each plate.

[3] = test system: ras^G12V pten^RNAi animals; test: Dissemination after compound feeding, ras^G12V pten^RNAi double; assay type: in vivo, Drosophila; conditions: single agent
Description: as §2
as §1, with “day. […]” for “day.”
(§4) Imaging and Scoring: Fluorescence images were taken using a Leica TCS SPE confocal microscope and processed using the Leica LAS-AF software. […] Distant migration was imaged and scored using a Leica MZ16F dissecting scope with a GFP filter under 10× magnification.
(§5) Statistical Analysis: Statistical significance for the distant migration assay was calculated using Fisher's exact test as this test allows the analysis of contingency tables where sample sizes are relatively small. […]

[4] = test system: ras^G12V p53^RNAi apc^RNAi animals; test: Dissemination after compound feeding, ras^G12V p53^RNAi apc^RNAi triple; assay type: in vivo, Drosophila; conditions: single agent
Description: as §2
as §1, with “day. […]” for “day.”
as §4, §5

HCT116 cells = test: MTT viability assay, HCT116 cells; assay type: cell-based, human
Description: as §3

[5] = test system: ras^G12V animals (adult hindgut); test: Dissemination (distant migration) into the abdominal cavity after compound feeding, ras^G12V model; assay type: in vivo, Drosophila; conditions: compounds fed for one week, single agent
Description: as §2
as §1, with “day. […]” for “day.”
as §4, §5

[6] = test system: ras^G12V p53^RNAi pten^RNAi apc^RNAi animals; conditions: Drosophila, in vivo, 7 days
Description: Targets, feeding doses and toxicity of compounds. a, List of compounds used for feeding experiments along with their targets, mechanisms of actions and concentrations used in the food. Estimated amount ingested was calculated based on our observations that adult females ingest approximately 0.2 μl of food per day (not shown). Estimated amount of ingested compound was also converted into mg/kg body weight/day using 1.1 mg as the average weight of an adult female. b, Survival curves of ras^G12V p53^RNAi pten^RNAi apc^RNAi animals fed the indicated compounds.

PI3K pathway = test: Western blot of PI3K pathway activation in DLD-1 cells; assay type: cell-based, human; conditions: DLD-1 cells treated with bortezomib
Description: Western Blot Analysis: Primary antibodies used were rabbit anti-Drosophila phospho-AKT ([MUT]) (1:1000, Cell Signaling), rabbit anti-pan-AKT (1:1000, Cell Signaling), rabbit anti-phospho-4EBP (T37/46) (1:1000, Cell Signaling), rabbit anti-human phospho-AKT (Ser473) (1:1000, Cell Signaling), mouse anti-α-actin (1:1000, Cell Signaling) and mouse anti-Syntaxin (1:1000, DSHB). HRP-conjugated anti-mouse and anti-rabbit antibodies were used as secondary antibodies (1:5000, Cell Signaling). For signal detection, Immobilon Chemiluminescent HRP Substrate (Millipore) was used. […] All experiments were done under low serum (2.5% FBS) conditions (38). […] Lysates were boiled for 10 minutes in SDS Sample buffer and reducing agent, resolved on SDS-Page and transferred using standard protocols. Cell lysates are prepared similarly. Protein concentrations were determined using BioRad Protein Assay Dye Reagent following manufacturer's instructions.

## O=c1cc(N2CCOCC2)oc2c(-c3ccccc3)cccc12 [LY294002, 2-(4-morpholinyl)-8-phenyl-4H-1-benzopyran-4-one]
[1]; combined with bortezomib
  p-4EBP levels: reduced p-4EBP back to baseline levels
[2]; four-hit model
  dissemination in combination with bortezomib: synergized

## Cn1c(=O)n(-c2ccc(C(C)(C)C#N)cc2)c2c3cc(-c4cnc5ccccc5c4)ccc3ncc21 [BEZ235]
DLD-1 cells; DLD-1 cells, bortezomib pretreatment for 24 hours
  sensitivity to BEZ235 after pretreatment with bortezomib: Increased sensitivity; also recorded: rendered DLD-1 cells sensitive to BEZ235 treatment; also recorded: sensitize the cells to BEZ235
DLD-1 cells; DLD-1 parental (Ras and PI3K active) vs DLD-1-WT
  BEZ235 dose response, parental versus PI3K wildtype line: more resistant to BEZ235 than the derivative line DLD-1-WT
[1]; combined with bortezomib
  p-4EBP levels: reduced p-4EBP back to baseline levels
[3]
  dissemination, response to BEZ235: sufficient to direct resistance to BEZ235
[4]
  dissemination, response to BEZ235: rendered the animals sensitive to BEZ235
HCT116 cells; HCT116 cells, bortezomib pretreatment for 24 hours
  sensitivity to BEZ235 after pretreatment with bortezomib: sensitize the cells to BEZ235
HCT116 cells; HCT116 parental (Ras and PI3K active) vs HCT116-WT
  BEZ235 dose response, parental versus PI3K wildtype line: more resistant to BEZ235 than its PI3K pathway wildtype counterpart, HCT116-WT
[2]; four-hit model
  dissemination in combination with bortezomib: synergized
[2]; four-hit model, sequential feeding
  dissemination after sequential treatment, bortezomib followed by BEZ235: effective; also recorded: much more effective than concurrent feeding

## Cc1[nH]c2ccccc2c1CCNCc1ccc(/C=C/C(=O)NO)cc1 [LBH589]
[5]
  distant migration (dissemination into the abdominal cavity): effective against ras^G12V
[2]
  distant migration (dissemination into the abdominal cavity): not against ras^G12V p53^RNAi pten^RNAi apc^RNAi at non-toxic doses

## CC(C)C[C@H](NC(=O)[C@H](Cc1ccccc1)NC(=O)c1cnccn1)B(O)O [bortezomib]
DLD-1 cells; DLD-1 cells
  viability after bortezomib pre-treatment alone: did not affect survival
DLD-1 cells; DLD-1 cells, listed as Bortezomib
  viability after bortezomib pre-treatment alone: does not affect the viability; also recorded: has no effect on viability
[1]; low doses of bortezomib
  PI3K and TORC1 activity: directed upregulation of PI3K and TORC1 activity
[1]; bortezomib treatment alone
  p-4EBP levels: increase in p-4EBP levels
[6]
  animals killed at doses showing efficacy: more than 70 % of the animals
HCT116 cells; HCT116 cells, doses that sensitize to BEZ235
  viability after bortezomib pre-treatment alone: does not affect the viability; also recorded: has no effect on viability
PI3K pathway
  PI3K pathway activation status: activated the PI3K pathway
[2]
  distant migration (dissemination into the abdominal cavity): only showed efficacy at doses that otherwise killed more than 70% of the animals

## Oc1cccc(-c2nc(N3CCOCC3)c3oc4ncccc4c3n2)c1 [P1103]
[2]; four-hit model
  dissemination in combination with bortezomib: synergized
